Ki data for 41 compounds are collected here from patent publication US9079866B2, “Flap modulators” (JANSSEN PHARMACEUTICA NV, priority 2013, dated 2015).

pKi: −log10 of the molar value. Structures can show the parent of a compound that is named as a salt.

As a reminder, the pKi is the Ki on a negative log10 scale, so that one unit is a factor of ten. Low values mean a high Ki, high ones a low Ki.

human FLAP, sequence (P20292 whole entry): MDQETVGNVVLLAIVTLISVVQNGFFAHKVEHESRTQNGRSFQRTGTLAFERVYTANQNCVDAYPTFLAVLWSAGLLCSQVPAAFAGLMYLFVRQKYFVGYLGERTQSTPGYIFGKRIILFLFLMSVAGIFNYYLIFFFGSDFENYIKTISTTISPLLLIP

This assay has as its target human FLAP (Homo sapiens (Human), UniProt P20292). Description: FLAP binding assay (HTRF format). Conditions: wild type FLAP, HTRF format. The procedure:
The ability of the compounds of the present invention to treat a FLAP-mediated disease and/or disorder, or associated symptoms or complications thereof, was determined using the following procedures. Binding assay data represent the average value obtained from two different assay plates, with samples run in duplicate on each plate. Human whole blood assay data represent a single replicate on an assay plate using whole blood from at least one healthy donor.
Data are expressed as a HTRF ratio.
(In general: In TR-FRET formats the signal depends on donor and acceptor labels being close together.)
`CN(C)S(=O)(=O)c1ccccc1-c1ccc(-c2cnc(N)cn2)cc1F` [Example 575, 4′-(5-Aminopyrazin-2-yl)-2′-fluoro-N,N-dimethylbiphenyl-2-sulfonamide]: the negative logarithm of the Ki (pKi) was 6.12. With `CC(C)(C)NS(=O)(=O)c1ccccc1-c1ccc(-c2cn3cc(C(N)=O)ccc3n2)c(F)c1` [Example 582, 2-[2′-(tert-Butylsulfamoyl)-3-fluorobiphenyl-4-yl]imidazo[1,2-a]pyridine-6-carboxamide] the figure was < 5.00. For `CC(C)(C)NS(=O)(=O)c1ccccc1-c1ccc(-c2cn3c(C#N)cccc3n2)c(F)c1` [Example 584, N-tert-Butyl-4′-(5-cyanoimidazo[1,2-a]pyridin-2-yl)-3′-fluorobiphenyl-2-sulfonamide] the value was < 5.00; for `CC(C)(C)NS(=O)(=O)c1ccccc1-c1ccc(-c2cn3cc(C#N)ccc3n2)c(F)c1` [Example 585, N-tert-Butyl-4′-(6-cyanoimidazo[1,2-a]pyridin-2-yl)-3′-fluorobiphenyl-2-sulfonamide], < 5.00. For `CC(C)(C)NS(=O)(=O)c1ccccc1-c1ccc(-c2cn3cc(C(F)(F)F)ccc3n2)c(F)c1` [Example 586, N-tert-Butyl-3′-fluoro-4′-[6-(trifluoromethyl)imidazo[1,2-a]pyridin-2-yl]biphenyl-2-sulfonamide] the value was < 5.00; for `CCOC(=O)c1cccc2nc(-c3ccc(-c4ccccc4S(=O)(=O)NC(C)(C)C)cc3F)cn12` [Example 587, Ethyl 2-[2′-(tert-butylsulfamoyl)-3-fluorobiphenyl-4-yl]imidazo[1,2-a]pyridine-5-carboxylate], < 5.00. As to `CS(=O)(=O)c1ccccc1-c1ccc(-c2cnc(N)cn2)cc1` [Example 589, 5-[2′-(Methylsulfonyl)biphenyl-4-yl]pyrazin-2-amine], the pKi was < 5.00. With `Cc1cc(-c2ccccc2S(C)(=O)=O)ccc1-c1cnc(N)cn1` [Example 590, 5-[3-Methyl-2′-(methylsulfonyl)biphenyl-4-yl]pyrazin-2-amine] the figure was < 5.00; with `Cc1cc(-c2ccccc2S(=O)(=O)N(C)C)ccc1-c1cnc(N)cn1` [Example 591, 4′-(5-Aminopyrazin-2-yl)-N,N,3′-trimethylbiphenyl-2-sulfonamide], ~5.60. For `Nc1cnc(-c2ccc(-c3ccccc3S(N)(=O)=O)cc2O)cn1` [Example 592, 4′-(5-Aminopyrazin-2-yl)-3′-hydroxybiphenyl-2-sulfonamide] the value was < 5.00; for `CS(=O)(=O)Nc1ccccc1-c1ccc(-c2cnc(N)cn2)cc1` [Example 593, N-[4′-(5-Aminopyrazin-2-yl)biphenyl-2-yl]methanesulfonamide], < 5.00; for `Nc1cnc(-c2ccc(-c3ccccc3S(N)(=O)=O)cc2)cn1` [Example 594, 4′-(5-Aminopyrazin-2-yl)biphenyl-2-sulfonamide], < 5.00. As to `CC(C)(C)NS(=O)(=O)c1ccccc1-c1ccc(-c2ccc3c(c2)CC(=O)N3)c(F)c1` [Example 595, N-tert-Butyl-3′-fluoro-4′-(2-oxo-2,3-dihydro-1H-indol-5-yl)biphenyl-2-sulfonamide], the pKi was ~5.60.

On to `CC(C)(C)NS(=O)(=O)c1ccccc1-c1ccc(-c2ccc3[nH]c(=O)[nH]c(=O)c3c2)c(F)c1` [Example 596, N-tert-Butyl-4′-(2,4-dioxo-1,2,3,4-tetrahydroquinazolin-6-yl)-3′-fluorobiphenyl-2-sulfonamide], for which the pKi was < 5.00. With `CC(C)(C)NS(=O)(=O)c1ccccc1-c1ccc(-c2cnc(N)c(C(=O)O)n2)c(F)c1` [Example 598, 3-Amino-6-[2′-(tert-butylsulfamoyl)-3-fluorobiphenyl-4-yl]pyrazine-2-carboxylic acid] the figure was < 5.00. For `NC(=O)CS(=O)(=O)c1ccccc1-c1ccc(-c2cnc(N)nc2)c(F)c1` [Example 599, 2-{[4′-(2-Aminopyrimidin-5-yl)-3′-fluorobiphenyl-2-yl]sulfonyl}acetamide] the value was < 5.00.

Take `CCN(CC)C(=O)CS(=O)(=O)c1ccccc1-c1ccc(-c2cnc(N)nc2)c(F)c1` [Example 600, 2-{[4′-(2-Aminopyrimidin-5-yl)-3′-fluorobiphenyl-2-yl]sulfonyl}-N,N-diethylacetamide]: the negative logarithm of the Ki (pKi) was < 5.00.

As to `Nc1ncc(-c2ccc(-c3ccccc3S(=O)(=O)CC(=O)N3CCOCC3)cc2F)cn1` [Example 601, 5-{3-Fluoro-2′-[(2-morpholin-4-yl-2-oxoethyl)sulfonyl]biphenyl-4-yl}pyrimidin-2-amine], the pKi was < 5.00.

As to `Nc1cnc(-c2ccc(-c3ccccc3OCCO)cc2F)cn1` [Example 628, 2-{[4′-(5-Aminopyrazin-2-yl)-3′-fluorobiphenyl-2-yl]oxy}ethanol], the pKi is 6.47. For `Nc1ncc(-c2ccc(-c3ccccc3OCCO)cc2F)cn1` [Example 629, 2-{[4′-(2-Aminopyrimidin-5-yl)-3′-fluorobiphenyl-2-yl]oxy}ethanol] the value was 6.08. For `Nc1cnc(-c2ccc(-c3ccccc3OC3CCNCC3)cc2F)cn1` [Example 630, 5-[3-Fluoro-2′-(piperidin-4-yloxy)biphenyl-4-yl]pyrazin-2-amine] the value was 5.72; for `Nc1ncc(-c2ccc(-c3ccccc3OC3CCNCC3)cc2F)cn1` [Example 631, 5-[3-Fluoro-2′-(piperidin-4-yloxy)biphenyl-4-yl]pyrimidin-2-amine], < 5.00.

With `NCCOc1ccccc1-c1ccc(-c2cnc(N)nc2)c(F)c1` [Example 641, 5-[2′-(2-Aminoethoxy)-3-fluorobiphenyl-4-yl]pyrimidin-2-amine], the pKi is < 5.00. For `Nc1ncc(-c2ccc(-c3ccccc3OCC(=O)O)cc2F)cn1` [Example 644, {[4′-(2-Aminopyrimidin-5-yl)-3′-fluorobiphenyl-2-yl]oxy}acetic acid] the value was < 5.00; for `Nc1ncc(-c2ccc(-c3cccnc3OCCO)cc2F)cn1` [Example 649, 2-({3-[4-(2-Aminopyrimidin-5-yl)-3-fluorophenyl]pyridin-2-yl}oxy)ethanol], < 5.00. For `Nc1cnc(-c2ccc(-c3cccnc3OCCO)cc2F)cn1` [Example 650, 2-({3-[4-(5-Aminopyrazin-2-yl)-3-fluorophenyl]pyridin-2-yl}oxy)ethanol] the value was 6.08; for `C[C@H](CO)Oc1ncccc1-c1ccc(-c2cnc(N)nc2)c(F)c1` [Example 658, (2I)-2-({3-[4-(2-Aminopyrimidin-5-yl)-3-fluorophenyl]pyridin-2-yl}oxy)propan-1-ol], 6.24; for `CS(=O)(=O)Nc1ccccc1-c1ccc(-c2ccc(N)nc2)c(F)c1` [Example 659, N-(4′-(6-Aminopyridin-3-yl)-3′-fluoro-[1,1′-biphenyl]-2-yl)methanesulfonamide], ~6.12. With `CNS(=O)(=O)c1ccccc1-c1ccc(-c2ccc(N)nc2)c(F)c1` [Example 661, 4′-(6-Aminopyridin-3-yl)-3′-fluoro-N-methyl-[1,1′-biphenyl]-2-sulfonamide] the figure was ~5.60; with `Nc1ccc(-c2ccc(-c3ccccc3S(N)(=O)=O)cc2F)cn1` [Example 662, 4′-(6-Aminopyridin-3-yl)-3′-fluoro-[1,1′-biphenyl]-2-sulfonamide trifluoroacetate], ~5.91; with `Nc1ncc(-c2ccc(-c3ccccc3C(=O)N3CCOCC3)cn2)cn1` [Example 677, 5-{5-[2-(Morpholin-4-ylcarbonyl)phenyl]pyridin-2-yl}pyrimidin-2-amine], < 5.00. Turning to `COc1ccccc1-c1ccc(-c2cnc(N)nc2)nc1` [Example 678, 5-[5-(2-Methoxyphenyl)pyridin-2-yl]pyrimidin-2-amine], the pKi was < 5.00.

Turning to `Nc1ncc(-c2ccc(-c3ccccc3S(=O)(=O)C3CC3)cn2)cn1` [Example 691, 5-{5-[2-(Cyclopropylsulfonyl)phenyl]pyridin-2-yl}pyrimidin-2-amine trifluoroacetic acid salt], the pKi is < 5.00. Take `N#Cc1ccccc1-c1ccc(-c2cnc(N)cn2)c(F)c1` [Example 701, 4′-(5-Aminopyrazin-2-yl)-3′-fluorobiphenyl-2-carbonitrile]: the pKi was ~5.85. With `Nc1cnc(-c2ccc(-c3ccccc3N3CCNC3=O)cc2F)cn1` [Example 702, 1-(4′-(5-Aminopyrazin-2-yl)-3′-fluoro-[1,1′-biphenyl]-2-yl)imidazolidin-2-one] the figure was ~6.52. For `CC(C)(C)NS(=O)(=O)c1ccccc1-c1ccc(-c2cnc(N)nc2C#N)c(F)c1` [Example 703, 4′-(2-Amino-4-cyanopyrimidin-5-yl)-N-tert-butyl-3′-fluorobiphenyl-2-sulfonamide] the value was < 5.00.

Consider `Nc1ncc(-c2ccc(-c3ccccc3S(=O)(=O)CCNC(=O)c3ccccc3)cc2F)cn1` [Example 716, N-(2-{[4′-(2-Aminopyrimidin-5-yl)-3′-fluorobiphenyl-2-yl]sulfonyl}ethyl)benzamide], for which the pKi was < 5.00. For `Nc1ncc(-c2ccc(-c3ccccc3S(=O)(=O)c3ncccn3)cc2F)cn1` [Example 718, 5-[3-Fluoro-2′-(pyrimidin-2-ylsulfonyl)biphenyl-4-yl]pyrimidin-2-amine] the value was < 5.00.

For `Nc1ncc(-c2ccc(-c3ccccc3S(=O)(=O)c3cnccn3)cc2F)cn1` [Example 719, 5-[3-Fluoro-2′-(pyrazin-2-ylsulfonyl)biphenyl-4-yl]pyrimidin-2-amine], the pKi is < 5.00.

Turning to `Nc1ncc(-c2ccc(-c3ccccc3S(=O)(=O)c3ccncn3)cc2F)cn1` [Example 720, 5-[3-Fluoro-2′-(pyrimidin-4-ylsulfonyl)biphenyl-4-yl]pyrimidin-2-amine], the pKi is < 5.00. Regarding `Nc1cc(S(=O)(=O)c2ccccc2-c2ccc(-c3cnc(N)nc3)c(F)c2)ncn1` [Example 721, 5-{2′-[(6-Aminopyrimidin-4-yl)sulfonyl]-3-fluorobiphenyl-4-yl}pyrimidin-2-amine], the pKi is < 5.00.
